{
  "source": "paper PMC1079869",
  "about": "(BMC Neuroscience, 2005)",
  "key": {"[1]": {"target": "T1, c-MYC-tagged human delta opioid receptor (Homo sapiens, UniProt P41143)", "T1 sequence (P41143 whole entry)": "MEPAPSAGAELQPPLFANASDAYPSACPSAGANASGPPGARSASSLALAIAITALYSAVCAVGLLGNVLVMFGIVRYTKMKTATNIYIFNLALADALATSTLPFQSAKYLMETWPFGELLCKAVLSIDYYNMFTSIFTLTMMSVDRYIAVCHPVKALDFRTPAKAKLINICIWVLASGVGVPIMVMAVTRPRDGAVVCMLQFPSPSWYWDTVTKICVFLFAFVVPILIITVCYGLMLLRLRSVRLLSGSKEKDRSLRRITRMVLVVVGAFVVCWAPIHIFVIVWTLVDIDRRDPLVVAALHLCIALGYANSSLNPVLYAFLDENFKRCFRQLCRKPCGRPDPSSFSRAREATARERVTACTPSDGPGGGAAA", "assay": "Tb-DeltI saturation binding on CHO/MYChDOR cell membranes (time-resolved fluorometry)", "conditions": "0.01 – 781.25 nM Tb-DeltI; 6 μg membranes; pH 7.5, 90 min room temperature; nonspecific with 1 μM DeltI; Figure 4B", "description": "The cells were collected with PBS + 0.2 % EDTA (w/v) and washed with cold PBS. The CHO/MYChDOR or CHO-K1 cells were suspended into ice-cold 50 mM Tris/HCl, 5 mM EDTA, pH 7.5 and homogenized with Potter S-homogenisator on ice. The homogenate was centrifuged 47800 × g at 4°C and the pellet was suspended into the Tris/EDTA buffer and the homogenization/centrifugation was repeated. The pellet was suspended into cold binding assay incubation buffer and the protein content was measured with the Bradford method.\n6 μg of crude membrane preparations or whole cells (25 000 cell/well) that were plated one day before experiment and fixed with 4 % PFA for 10 min at room temperature, were used in the saturation binding experiments. The whole cell assays were carried out on normal cell culture plates and the assays with membrane preparations on special filter plates (Pall Life Sciences). […] Thereafter, 40 μl Delfia enhancer that changes the pH of the assay solution appropriate for Tb-fluorescence was added, and the plates were further incubated for 5 min on a shaker. The time-resolved fluorescence of the released Tb-ion was measured with Victor^2 Multilabel counter (Perkin Elemer Wallac, Turku, Finland)."}, "[2]": {"target": "T1, c-MYC-tagged human delta opioid receptor", "assay": "Tb-DeltI binding on CHO/MYChDOR whole cells, effect of (1DMe)NPYF (time-resolved fluorometry)", "conditions": "whole cells, relative BMAX, n = 3", "description": "6 μg of crude membrane preparations or whole cells (25 000 cell/well) that were plated one day before experiment and fixed with 4 % PFA for 10 min at room temperature, were used in the saturation binding experiments. The whole cell assays were carried out on normal cell culture plates and the assays with membrane preparations on special filter plates (Pall Life Sciences). The cells or membranes were incubated in 50 mM Tris/HCl pH 7.5; 2.5 mM MgCl2; 60 mM NaCl; 25 μM EDTA, 0.2 % BSA (w/v) for 90 min at room temperature with 0.01 – 781.25 nM Tb-DeltI in the presence or absence of 1 or 5 μM unlabeled DeltI. To study the effect of (1DMe)NPYF on the Tb-DeltI binding, 1–1000 nM (1DMe)NPYF was added together with unlabeled DeltI. After the incubation the unbound Tb-DeltI was removed by washing the plates four times with 50 mM Tris/HCl pH 7.5; 2.5 mM MgCl2. Vacuum pump system was used to wash the filter plates. Since the chelate-bound Tb-ion is nonfluorescent, it needed to be released from the complex. In order to release Tb-ion from the chelate 150 μl Delfia enhancement solution was added to the wells and the plates were incubated on a shaker for 15 min. Thereafter, 40 μl Delfia enhancer that changes the pH of the assay solution appropriate for Tb-fluorescence was added, and the plates were further incubated for 5 min on a shaker. The time-resolved fluorescence of the released Tb-ion was measured with Victor^2 Multilabel counter (Perkin Elemer Wallac, Turku, Finland)."}},
  "note": "Square brackets hold non-standard residues; d marks the D form. Peptide text beside a SMILES is read from it.",
  "data": [
    {"compound": "CC(C)[C@H](NC(=O)[C@H](CC(=O)O)NC(=O)[C@H](Cc1ccccc1)NC(=O)[C@@H](C)NC(=O)[C@H](Cc1ccc(O)cc1)NC(=O)[C@@H](N)CS)C(=O)N[C@H](C(=O)NCC(N)=O)C(C)C", "note": "[Tb-DeltI] (H-CY[dA]FDVVG-NH2; N-terminus and C-terminus assumed)", "values": [
      {"measurement": "Tb-DeltI binding to cell membranes", "setting": "[1]", "value": "dose-dependently and the binding was saturable at a nanomolar range"},
      {"measurement": "BMAX for Tb-DeltI", "setting": "[2]; 0 nM (1DMe)NPYF", "value": "1.60 ± 0.06", "unit": "pmol/cell"},
      {"measurement": "BMAX for Tb-DeltI", "setting": "[2]; in presence of 1 nM (1DMe)NPYF, *** p < 0.001 vs absence of (1DMe)NPYF", "value": "0.70 ± 0.08 *** pmol/cell"},
      {"measurement": "BMAX for Tb-DeltI", "setting": "[2]; in presence of 10 nM (1DMe)NPYF, *** p < 0.001 vs absence of (1DMe)NPYF", "value": "0.89 ± 0.06 *** pmol/cell"},
      {"measurement": "BMAX for Tb-DeltI", "setting": "[2]; in presence of 100 nM (1DMe)NPYF", "value": "1.42 ± 0.11", "unit": "pmol/cell"},
      {"measurement": "BMAX for Tb-DeltI", "setting": "[2]; in presence of 1000 nM (1DMe)NPYF", "value": "1.49 ± 0.10", "unit": "pmol/cell"}
    ]}
  ]
}
